Data as given in patent US20250019385A1, “SPIROCYCLIC ANNULATED 2-AMINO-3-CYANO THIOPHENES AND DERIVATIVES FOR THE TREATMENT OF CANCER” (Boehringer Ingelheim International GmbH, priority 2023, published 2025).

Test system: AsPC-1 cells
Assay: AsPC-1 CTG proliferation assay (120 h) (pancreatic cancer, G12D)
Format: cell-based
Details: Homo sapiens, ASPC1
Method: (§1) AsPC-1 cells (ATCC CRL-1682) are dispensed into black 384-well plates, flat and clear bottom (Greiner, PNr. 781091) at a density of 500 cells per well in 60 μl RPMI ATCC-Formulation (PAN P04-18047)+10% FCS (fetal calf serum, HyClone, SH30084.03). Cells are incubated overnight at 37° C. in a humidified tissue culture incubator at 5% CO2. Compounds (10 mM stock in DMSO) are added at logarithmic dose series using the ECHO acoustic liquid handler system (Beckman Coulter), normalizing for added DMSO and including DMSO controls. All compound treatments are performed in technical duplicates. For the TO time point measurement, untreated cells are analyzed at the time of compound addition. Plates are incubated for 120 h, and cell viability is measured using CellTiter-Glo luminescent cell viability reagent (Promega product code G7570). Viability (stated as percent of control) is defined as relative luminescence units RLU of each well divided by the RLU of cells in DMSO controls. IC50 values are determined from viability measurements by non-linear regression using a four-parameter model.
(§2) IC50 values of representative compounds according to the invention measured with these assays in the indicated cell lines are presented in Table 46.

Row | Compound | IC50 [nM]
1 | Cc1cn([C@@H]2CCOC2)c2nc(-c3onc4c3CCC[C@@]43CCCc4sc(N)c(C#N)c43)nc(O[C@@H](C)[C@@H]3CCCN3C)c12 [I-41] | 980
2 | C[C@H](Oc1nc(-c2onc3c2CCC[C@@]32CCCc3sc(N)c(C#N)c32)nc2c1[nH]c(=O)n2[C@@H]1CCCOC1)[C@@H]1CCCN1C [I-13] | 2370
3 | CO[C@@H]1C[C@@H]([C@H](C)Oc2nc(-c3onc4c3CCC[C@@]43CCCc4sc(N)c(C#N)c43)nc3c2n(C)c(=O)n3[C@@H]2CCOC2)N(C)C1 [I-3] | 438
4 | C[C@H](Oc1nc(-c2noc3c2CCC[C@@]32CCCc3sc(N)c(C#N)c32)nc2c1CN(C1COC1)C[C@]21CCOC1)[C@@H]1CCCN1C [II-12] | 129

Compounds with a lower IC50, results first:

Row | IC50 [nM] | Compound
5 | 34 | C[C@H](Oc1nc(-c2noc3c2CCC[C@@]32SCCc3sc(N)c(C#N)c32)nc2c1COC[C@]21CCOC1)[C@@H]1CCCN1C [II-16]
6 | 92 | C[C@H](Oc1nc(-c2onc3c2CCC[C@@]32CCCc3sc(N)c(C#N)c32)nc2c1CN(C1COC1)C[C@]21CCOC1)[C@@H]1CCCN1C [I-56]

Test system: NCI-H358 cells
Assay: NCI-H358 CTG proliferation assay (120 h) (NSCLC, G12C)
Format: cell-based
Details: Homo sapiens
Method: as §1, with “NCI-H358” for “AsPC-1”, “No. CRL-5807)” for “CRL-1682)”, “200” for “500”, “RPMI-1640” for “RPMI”, “(Gibco #A10491)+10%” for “(PAN P04-18047)+10%”, “serum).” for “serum, HyClone, SH30084.03).”
as §2

Row | Compound | IC50 [nM]
7 | Cc1cn([C@@H]2CCOC2)c2nc(-c3onc4c3CCC[C@@]43CCCc4sc(N)c(C#N)c43)nc(O[C@@H](C)[C@@H]3CCCN3C)c12 [I-41] | 294
8 | C[C@H](Oc1nc(-c2onc3c2CCC[C@@]32CCCc3sc(N)c(C#N)c32)nc2c1[nH]c(=O)n2[C@@H]1CCCOC1)[C@@H]1CCCN1C [I-13] | 9
9 | CO[C@@H]1C[C@@H]([C@H](C)Oc2nc(-c3onc4c3CCC[C@@]43CCCc4sc(N)c(C#N)c43)nc3c2n(C)c(=O)n3[C@@H]2CCOC2)N(C)C1 [I-3] | 4
10 | C[C@H](Oc1nc(-c2noc3c2CCC[C@@]32CCCc3sc(N)c(C#N)c32)nc2c1CN(C1COC1)C[C@]21CCOC1)[C@@H]1CCCN1C [II-12] | 4

Continued, values first:

Row | IC50 [nM] | Compound
11 | 1 | C[C@H](Oc1nc(-c2noc3c2CCC[C@@]32SCCc3sc(N)c(C#N)c32)nc2c1COC[C@]21CCOC1)[C@@H]1CCCN1C [II-16]
12 | 6 | C[C@H](Oc1nc(-c2onc3c2CCC[C@@]32CCCc3sc(N)c(C#N)c32)nc2c1CN(C1COC1)C[C@]21CCOC1)[C@@H]1CCCN1C [I-56]

Test system: NCI-H727 cells
Assay: NCI-H727 CTG proliferation assay (120 h) (lung cancer, G12V)
Format: cell-based
Details: Homo sapiens
Method: as §1, with “NCI-H727” for “AsPC-1”, “No. CRL-5815)” for “CRL-1682)”
as §2

Row | Compound | IC50 [nM]
13 | Cc1cn([C@@H]2CCOC2)c2nc(-c3onc4c3CCC[C@@]43CCCc4sc(N)c(C#N)c43)nc(O[C@@H](C)[C@@H]3CCCN3C)c12 [I-41] | 107
14 | C[C@H](Oc1nc(-c2onc3c2CCC[C@@]32CCCc3sc(N)c(C#N)c32)nc2c1[nH]c(=O)n2[C@@H]1CCCOC1)[C@@H]1CCCN1C [I-13] | 13
15 | CO[C@@H]1C[C@@H]([C@H](C)Oc2nc(-c3onc4c3CCC[C@@]43CCCc4sc(N)c(C#N)c43)nc3c2n(C)c(=O)n3[C@@H]2CCOC2)N(C)C1 [I-3] | 5
16 | C[C@H](Oc1nc(-c2noc3c2CCC[C@@]32CCCc3sc(N)c(C#N)c32)nc2c1CN(C1COC1)C[C@]21CCOC1)[C@@H]1CCCN1C [II-12] | 3

More lines, now with the values ahead:

Row | IC50 [nM] | Compound
17 | 1 | C[C@H](Oc1nc(-c2noc3c2CCC[C@@]32SCCc3sc(N)c(C#N)c32)nc2c1COC[C@]21CCOC1)[C@@H]1CCCN1C [II-16]
18 | 4 | C[C@H](Oc1nc(-c2onc3c2CCC[C@@]32CCCc3sc(N)c(C#N)c32)nc2c1CN(C1COC1)C[C@]21CCOC1)[C@@H]1CCCN1C [I-56]

Test system: not listed separately
Assay: Metabolic (microsomal) stability assay, human liver microsomes (HLM)
Format: in vitro ADME
Details: 1 μM test compound, predicted clearance as percent of liver blood flow

Row | Compound | HLM QH [%]
19 | Cc1cn([C@@H]2CCOC2)c2nc(-c3onc4c3CCC[C@@]43CCCc4sc(N)c(C#N)c43)nc(O[C@@H](C)[C@@H]3CCCN3C)c12 [I-41] | <24
20 | C[C@H](Oc1nc(-c2onc3c2CCC[C@@]32CCCc3sc(N)c(C#N)c32)nc2c1[nH]c(=O)n2[C@@H]1CCCOC1)[C@@H]1CCCN1C [I-13] | <24
21 | CO[C@@H]1C[C@@H]([C@H](C)Oc2nc(-c3onc4c3CCC[C@@]43CCCc4sc(N)c(C#N)c43)nc3c2n(C)c(=O)n3[C@@H]2CCOC2)N(C)C1 [I-3] | 42
22 | C[C@H](Oc1nc(-c2noc3c2CCC[C@@]32CCCc3sc(N)c(C#N)c32)nc2c1CN(C1COC1)C[C@]21CCOC1)[C@@H]1CCCN1C [II-12] | 26

Other lines, results leading:

Row | HLM QH [%] | Compound
23 | 64 | C[C@H](Oc1nc(-c2noc3c2CCC[C@@]32SCCc3sc(N)c(C#N)c32)nc2c1COC[C@]21CCOC1)[C@@H]1CCCN1C [II-16]
24 | <24 | C[C@H](Oc1nc(-c2onc3c2CCC[C@@]32CCCc3sc(N)c(C#N)c32)nc2c1CN(C1COC1)C[C@]21CCOC1)[C@@H]1CCCN1C [I-56]

Test system: SK-CO-1 cells
Assay: SK-CO-1 CTG proliferation assay (120 h) (CRC, G12V)
Format: cell-based
Details: Homo sapiens
Method: as §1, with “SK—CO-1” for “AsPC-1”, “HTB-39)” for “CRL-1682)”, “EMEM (Sigma M5650)+10%” for “RPMI ATCC-Formulation (PAN P04-18047)+10%”
as §2

Row | Compound | IC50 [nM]
25 | Cc1cn([C@@H]2CCOC2)c2nc(-c3onc4c3CCC[C@@]43CCCc4sc(N)c(C#N)c43)nc(O[C@@H](C)[C@@H]3CCCN3C)c12 [I-41] | 18
26 | C[C@H](Oc1nc(-c2onc3c2CCC[C@@]32CCCc3sc(N)c(C#N)c32)nc2c1[nH]c(=O)n2[C@@H]1CCCOC1)[C@@H]1CCCN1C [I-13] | 48
27 | CO[C@@H]1C[C@@H]([C@H](C)Oc2nc(-c3onc4c3CCC[C@@]43CCCc4sc(N)c(C#N)c43)nc3c2n(C)c(=O)n3[C@@H]2CCOC2)N(C)C1 [I-3] | 4
28 | C[C@H](Oc1nc(-c2noc3c2CCC[C@@]32CCCc3sc(N)c(C#N)c32)nc2c1CN(C1COC1)C[C@]21CCOC1)[C@@H]1CCCN1C [II-12] | 5

The remaining lines, values ahead:

Row | IC50 [nM] | Compound
29 | 2 | C[C@H](Oc1nc(-c2noc3c2CCC[C@@]32SCCc3sc(N)c(C#N)c32)nc2c1COC[C@]21CCOC1)[C@@H]1CCCN1C [II-16]
30 | 7 | C[C@H](Oc1nc(-c2onc3c2CCC[C@@]32CCCc3sc(N)c(C#N)c32)nc2c1CN(C1COC1)C[C@]21CCOC1)[C@@H]1CCCN1C [I-56]
